Experiment [1] in a line: HeLa cell cytotoxicity, dose response, cytotoxicity control, 24 h, plate reader, dry powder (AID 686928). In kind it is functional, cell-based.
Experiment [2] addresses T1, Beta Lactamase (Pseudomonas aeruginosa, UniProt Q932Y6). In words: beta-lactamase reporter inhibitor potency, dose response, artefact control for TLR9-MyD88 binding inhibitor project, BLA reporter cells, FRET fluorescence (AID 588341).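 Note: cell based assay in CHO-K1 cells stably expressing beta-lactamase.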 In kind it is cell-based.
The next experiment has as its target T2, Protein Tat (Human immunodeficiency virus type 1 group M subtype B (isolate HXB2)(HIV-1), UniProt P04608).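 Note: tat binding to TAR RNA read out by fluorescence polarization.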
T2 sequence (P04608 whole entry): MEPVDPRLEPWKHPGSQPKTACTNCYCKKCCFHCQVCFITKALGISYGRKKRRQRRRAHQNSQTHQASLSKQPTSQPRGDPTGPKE
Type of experiment: functional.

For experiment [3], the target named is T1, Beta Lactamase. Description: beta-lactamase reporter inhibitor potency, dose response, artefact control for NOD2-RIPK2 interaction inhibitor project, BLA reporter cells, FRET fluorescence (AID 651552). In kind it is functional, cell-based.
Experiment [4] addresses Heat shock protein HSP 90-alpha (Homo sapiens, UniProt P07900). Type of experiment: functional, organism-based.
Experiment [5] addresses Glucose-6-phosphate 1-dehydrogenase (Homo sapiens, UniProt P11413). Description: human G6PD enzyme inhibitors, dose response, selectivity assay for P. falciparum G6PD inhibitor project, biochemical, fluorescence (AID 504792). In kind it is functional.
A short description of experiment [6]: non-specific cell cytotoxicity, dose response, cytotoxicity control for PAX8 inhibitor project, plate reader, dry powder samples (AID 743021). Type of experiment: functional, cell-based.
Another experiment deals with Vero. In words: Vero cell cytotoxicity, cytotoxicity control for flavivirus capping enzyme inhibitors (AID 588742). Type of experiment: functional. The following applies: Chlorocebus sabaeus.
For the next experiment, the target named is Genome polyprotein (dengue virus type 2, UniProt P29990). Description: Dengue-2 NS5 methyltransferase inhibitors, primary screen, biochemical, confirmation dose response (AID 588689). In kind it is functional.
Genome polyprotein, sequence (P29990 2492-3391 limits assumed): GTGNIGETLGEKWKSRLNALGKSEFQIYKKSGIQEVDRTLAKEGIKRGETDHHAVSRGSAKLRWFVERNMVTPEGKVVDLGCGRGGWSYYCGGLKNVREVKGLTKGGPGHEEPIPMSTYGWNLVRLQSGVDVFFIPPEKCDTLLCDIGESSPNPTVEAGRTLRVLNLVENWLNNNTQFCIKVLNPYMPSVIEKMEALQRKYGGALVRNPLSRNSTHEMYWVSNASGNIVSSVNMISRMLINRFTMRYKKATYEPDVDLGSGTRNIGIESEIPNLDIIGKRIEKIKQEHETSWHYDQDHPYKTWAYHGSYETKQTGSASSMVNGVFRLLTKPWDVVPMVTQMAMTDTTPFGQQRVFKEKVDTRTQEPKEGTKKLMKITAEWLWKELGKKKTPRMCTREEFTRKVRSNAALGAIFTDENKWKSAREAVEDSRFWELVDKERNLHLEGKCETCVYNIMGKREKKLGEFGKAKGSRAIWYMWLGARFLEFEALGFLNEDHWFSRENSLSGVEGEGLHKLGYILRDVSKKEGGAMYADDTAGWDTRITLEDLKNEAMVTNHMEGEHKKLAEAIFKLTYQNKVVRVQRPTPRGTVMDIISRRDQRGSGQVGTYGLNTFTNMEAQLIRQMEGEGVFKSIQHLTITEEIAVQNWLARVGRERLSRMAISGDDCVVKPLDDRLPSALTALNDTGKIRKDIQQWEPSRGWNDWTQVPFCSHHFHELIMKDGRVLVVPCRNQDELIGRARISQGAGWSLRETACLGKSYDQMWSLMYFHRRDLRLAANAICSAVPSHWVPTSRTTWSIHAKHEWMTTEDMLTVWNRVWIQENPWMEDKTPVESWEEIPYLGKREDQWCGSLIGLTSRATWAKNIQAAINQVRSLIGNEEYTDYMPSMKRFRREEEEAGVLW
The next experiment addresses Beta-galactosidase (Escherichia coli, UniProt Q8VNN2). Description: beta-galactosidase enzyme inhibitors and activators, dose response, artefact control for CCR6 antagonist project, biochemical, E. coli enzyme, set 3 (AID 504712). Type of experiment: functional.
Experiment [7] in a line: Fluorescence-based cell-based high throughput dose response assay for inhibitors of the interaction of nucleotide-binding oligomerization domain containing 2 (NOD2) and the receptor-interacting serine-threonine kinase 2 (RIPK2). In kind it is functional. As to conditions: Homo sapiens.
In the next experiment the test system is CHO. Description: cytotoxicity in TLR9-MyD88 CHO cells, dose response, cytotoxicity control for TLR9-MyD88 binding inhibitor project, cell-based, luminescence (AID 588339).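 Note: CHO cells stably coexpressing TLR9 and MyD88 fusions from primary screen; compound exposure lasted 48 hours before viability readout.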 Type of experiment: functional, hamster. The following applies: Cricetulus griseus.
Experiment [8] can be described thus: THP-1 cell cytotoxicity, dose response, cytotoxicity control for Vif-APOBEC3G degradation inhibitor project, THP-1 cells (AID 1117359). Type of experiment: functional. As to conditions: Human immunodeficiency virus 1, THP-1.
The target of another experiment is Paired box protein Pax-8 (Homo sapiens, UniProt Q06710). Description: inhibitors of PAX8-driven TPO luciferase reporter, dose response, RMG-I cells, cherry-pick (AID 687027).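 Note: luciferase reporter driven by Pax8 target thyroperoxidase promoter measured by SteadyGlo luminescence.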 Type of experiment: functional, cell-based. On the technique in general: In a reporter assay the amount or activity of a reporter protein is the signal.
Paired box protein Pax-8, sequence (Q06710 whole entry): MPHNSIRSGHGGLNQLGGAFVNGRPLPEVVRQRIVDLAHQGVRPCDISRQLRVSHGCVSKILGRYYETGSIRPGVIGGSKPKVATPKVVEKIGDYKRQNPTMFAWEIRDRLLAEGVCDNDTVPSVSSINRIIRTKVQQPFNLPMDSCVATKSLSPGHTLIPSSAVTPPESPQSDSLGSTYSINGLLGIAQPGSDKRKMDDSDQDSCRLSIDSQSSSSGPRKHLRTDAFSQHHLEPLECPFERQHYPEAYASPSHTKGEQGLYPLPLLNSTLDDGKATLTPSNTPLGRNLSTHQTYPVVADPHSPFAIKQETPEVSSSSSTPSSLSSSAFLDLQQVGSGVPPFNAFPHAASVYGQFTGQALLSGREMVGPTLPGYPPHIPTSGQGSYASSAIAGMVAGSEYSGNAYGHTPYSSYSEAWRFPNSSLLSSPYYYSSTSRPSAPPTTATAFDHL
For experiment [9], the target named is T3, Sentrin-specific protease 6 (Homo sapiens, UniProt Q9GZR1).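 Note: Luminescence-based dose-response confirmatory assay of SENP6 inhibition, following up an ultra-high-throughput screen.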
T3 sequence (Q9GZR1 whole entry): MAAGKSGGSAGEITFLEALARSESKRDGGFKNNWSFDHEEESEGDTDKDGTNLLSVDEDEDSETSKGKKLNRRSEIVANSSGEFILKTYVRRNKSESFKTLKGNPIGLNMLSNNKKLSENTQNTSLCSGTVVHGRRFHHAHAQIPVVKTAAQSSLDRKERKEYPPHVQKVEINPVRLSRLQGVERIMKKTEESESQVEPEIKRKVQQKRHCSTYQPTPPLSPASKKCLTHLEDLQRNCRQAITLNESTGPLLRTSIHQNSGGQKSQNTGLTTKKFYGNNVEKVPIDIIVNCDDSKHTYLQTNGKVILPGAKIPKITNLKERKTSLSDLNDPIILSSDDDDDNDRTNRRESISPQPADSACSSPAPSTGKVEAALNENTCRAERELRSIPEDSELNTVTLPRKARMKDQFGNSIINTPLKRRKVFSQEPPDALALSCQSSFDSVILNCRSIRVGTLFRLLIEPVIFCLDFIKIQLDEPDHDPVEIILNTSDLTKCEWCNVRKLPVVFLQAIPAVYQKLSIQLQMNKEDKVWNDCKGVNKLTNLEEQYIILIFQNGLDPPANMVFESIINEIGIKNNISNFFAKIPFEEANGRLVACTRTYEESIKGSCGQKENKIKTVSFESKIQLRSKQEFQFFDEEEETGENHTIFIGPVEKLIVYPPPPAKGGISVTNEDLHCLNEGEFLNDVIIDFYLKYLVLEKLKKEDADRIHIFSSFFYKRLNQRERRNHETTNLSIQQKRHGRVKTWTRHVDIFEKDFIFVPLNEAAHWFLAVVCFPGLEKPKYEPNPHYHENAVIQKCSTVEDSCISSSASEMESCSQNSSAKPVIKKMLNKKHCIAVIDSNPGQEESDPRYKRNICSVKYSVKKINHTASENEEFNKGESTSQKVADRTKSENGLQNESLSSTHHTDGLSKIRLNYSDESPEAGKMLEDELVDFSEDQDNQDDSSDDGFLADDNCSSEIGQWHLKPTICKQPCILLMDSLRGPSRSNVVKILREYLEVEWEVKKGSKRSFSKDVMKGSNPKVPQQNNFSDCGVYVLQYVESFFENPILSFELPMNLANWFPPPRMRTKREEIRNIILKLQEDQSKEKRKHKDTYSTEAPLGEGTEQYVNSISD
In kind it is functional.

For experiment [10], the target named is T4, Oxysterols receptor LXR-beta (Homo sapiens, UniProt P55055).
T4 sequence (P55055 whole entry): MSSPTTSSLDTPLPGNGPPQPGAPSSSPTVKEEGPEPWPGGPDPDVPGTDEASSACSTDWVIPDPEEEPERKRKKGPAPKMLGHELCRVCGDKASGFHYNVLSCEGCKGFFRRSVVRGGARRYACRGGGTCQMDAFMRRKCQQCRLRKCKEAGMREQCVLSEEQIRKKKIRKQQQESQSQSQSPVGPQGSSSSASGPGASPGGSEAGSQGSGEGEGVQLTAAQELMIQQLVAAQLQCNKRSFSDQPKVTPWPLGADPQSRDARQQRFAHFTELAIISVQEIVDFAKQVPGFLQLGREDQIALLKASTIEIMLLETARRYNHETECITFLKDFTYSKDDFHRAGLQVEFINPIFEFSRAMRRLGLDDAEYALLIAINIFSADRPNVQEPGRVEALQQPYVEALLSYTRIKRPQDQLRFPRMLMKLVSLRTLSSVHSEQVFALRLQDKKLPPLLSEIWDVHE
Description: LXR agonists, Gal4 luciferase reporter, dose response, counter-screen for ssDAF-12 agonist project, cell-based, luminescence, HEK293, S. stercoralis campaign (AID 720737). In kind it is functional. The following applies: read-out: IC50 (the source's name).

For experiment [11], the target named is T5, Sentrin-specific protease 7 (Homo sapiens, UniProt Q9BQF6).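 Note: Luminescence-based dose-response confirmation of ultra-high-throughput screening hits, measuring inhibition of SENP7.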
T5 sequence (Q9BQF6 whole entry): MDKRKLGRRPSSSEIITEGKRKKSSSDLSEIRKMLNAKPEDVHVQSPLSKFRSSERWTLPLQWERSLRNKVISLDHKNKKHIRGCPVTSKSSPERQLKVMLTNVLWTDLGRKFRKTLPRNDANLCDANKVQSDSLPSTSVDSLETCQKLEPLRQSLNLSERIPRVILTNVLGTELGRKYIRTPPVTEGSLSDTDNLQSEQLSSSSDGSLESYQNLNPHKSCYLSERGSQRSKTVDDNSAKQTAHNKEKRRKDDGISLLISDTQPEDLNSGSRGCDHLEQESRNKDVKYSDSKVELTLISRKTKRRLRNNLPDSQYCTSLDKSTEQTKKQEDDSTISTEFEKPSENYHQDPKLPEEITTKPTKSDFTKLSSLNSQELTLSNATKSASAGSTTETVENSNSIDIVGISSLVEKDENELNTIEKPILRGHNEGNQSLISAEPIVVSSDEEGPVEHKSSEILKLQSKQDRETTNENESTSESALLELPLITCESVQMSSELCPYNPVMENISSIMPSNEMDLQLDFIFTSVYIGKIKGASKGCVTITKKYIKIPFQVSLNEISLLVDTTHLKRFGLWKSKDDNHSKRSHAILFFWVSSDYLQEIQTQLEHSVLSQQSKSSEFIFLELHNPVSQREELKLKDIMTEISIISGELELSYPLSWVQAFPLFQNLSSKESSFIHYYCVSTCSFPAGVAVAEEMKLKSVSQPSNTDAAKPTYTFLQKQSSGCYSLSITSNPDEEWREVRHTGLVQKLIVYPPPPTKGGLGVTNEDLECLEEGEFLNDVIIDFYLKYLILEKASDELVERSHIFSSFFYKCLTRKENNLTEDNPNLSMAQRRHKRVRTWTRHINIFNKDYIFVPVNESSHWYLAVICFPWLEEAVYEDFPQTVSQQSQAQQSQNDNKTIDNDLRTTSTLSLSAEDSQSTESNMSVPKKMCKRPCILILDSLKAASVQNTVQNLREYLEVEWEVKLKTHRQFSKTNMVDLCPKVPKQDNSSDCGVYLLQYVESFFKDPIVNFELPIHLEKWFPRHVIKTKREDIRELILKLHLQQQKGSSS
Type of experiment: functional.

The target in experiment [12] is T6, Endoribonuclease toxin MazF (Escherichia coli K-12, UniProt P0AE70).
T6 sequence (P0AE70 whole entry): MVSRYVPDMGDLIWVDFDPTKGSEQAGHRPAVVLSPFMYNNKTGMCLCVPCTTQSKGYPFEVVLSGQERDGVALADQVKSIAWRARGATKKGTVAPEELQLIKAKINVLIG
Description: MazF toxin RNase activators, dose response, biochemical, fluorescence, single-stranded RNA substrate, uHTS hits (AID 588481). In kind it is functional.

Experiment [13] has as its target T4, Oxysterols receptor LXR-beta. In kind it is functional, cell-based.
The target is the same in experiment [14]. In kind it is functional, cell-based. This is another data set of the same source.
Experiment [15] deals with T6, Endoribonuclease toxin MazF. Description: fluorescent RNA oligo signal without MazF, dose response, counter-screen for MazEF activator project, biochemical, fluorescence, single-stranded RNase substrate (AID 588502). Type of experiment: functional. For orientation: The purpose of a counterscreen is to sort out artefacts and off-target activity.
Experiment [16] is described as follows: Luminescence-based cell-based high throughput dose response assay to identify activators of the DAF-12 from the parasite S. stercoralis (ssDAF-12). In kind it is functional.
The target in another experiment is T7, Caspase-3 (Homo sapiens, UniProt P42574).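 Note: Dose-response selectivity test against caspase-3 for candidate inhibitors of sentrin-specific proteases (SENPs).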
T7 sequence (P42574 whole entry): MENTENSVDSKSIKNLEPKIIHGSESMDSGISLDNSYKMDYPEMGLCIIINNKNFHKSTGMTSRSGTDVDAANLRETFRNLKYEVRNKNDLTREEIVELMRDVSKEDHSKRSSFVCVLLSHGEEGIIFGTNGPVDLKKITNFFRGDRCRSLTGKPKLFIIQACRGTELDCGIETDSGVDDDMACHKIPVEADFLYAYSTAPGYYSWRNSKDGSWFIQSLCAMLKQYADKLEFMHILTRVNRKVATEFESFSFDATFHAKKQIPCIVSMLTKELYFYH
In kind it is functional.

For experiment [17], the target named is T8, Sentrin-specific protease 8 (Homo sapiens, UniProt Q96LD8).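 Note: luminescence read-out of SENP8 inhibition, dose-response confirmation following an ultra-high-throughput screen.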
T8 sequence (Q96LD8 whole entry): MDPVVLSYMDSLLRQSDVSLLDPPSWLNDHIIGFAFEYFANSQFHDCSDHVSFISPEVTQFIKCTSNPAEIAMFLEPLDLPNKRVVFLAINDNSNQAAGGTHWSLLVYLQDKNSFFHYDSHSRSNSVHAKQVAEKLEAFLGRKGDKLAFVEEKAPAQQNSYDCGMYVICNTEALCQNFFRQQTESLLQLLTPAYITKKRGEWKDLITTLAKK
In kind it is functional.

The structures appear in SMILES notation. Calls of active or inactive are those of the source.

T1 sequence (Q932Y6 whole entry): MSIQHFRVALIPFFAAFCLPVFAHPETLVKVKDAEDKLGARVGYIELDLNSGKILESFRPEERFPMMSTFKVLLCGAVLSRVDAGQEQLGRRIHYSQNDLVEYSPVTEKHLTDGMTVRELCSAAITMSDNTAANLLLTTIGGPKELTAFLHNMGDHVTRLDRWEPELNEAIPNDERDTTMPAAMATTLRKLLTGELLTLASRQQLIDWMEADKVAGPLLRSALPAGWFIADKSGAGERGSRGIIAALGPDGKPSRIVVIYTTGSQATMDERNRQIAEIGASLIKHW
Beta-galactosidase, sequence (Q8VNN2 whole entry, the tested form may be a part): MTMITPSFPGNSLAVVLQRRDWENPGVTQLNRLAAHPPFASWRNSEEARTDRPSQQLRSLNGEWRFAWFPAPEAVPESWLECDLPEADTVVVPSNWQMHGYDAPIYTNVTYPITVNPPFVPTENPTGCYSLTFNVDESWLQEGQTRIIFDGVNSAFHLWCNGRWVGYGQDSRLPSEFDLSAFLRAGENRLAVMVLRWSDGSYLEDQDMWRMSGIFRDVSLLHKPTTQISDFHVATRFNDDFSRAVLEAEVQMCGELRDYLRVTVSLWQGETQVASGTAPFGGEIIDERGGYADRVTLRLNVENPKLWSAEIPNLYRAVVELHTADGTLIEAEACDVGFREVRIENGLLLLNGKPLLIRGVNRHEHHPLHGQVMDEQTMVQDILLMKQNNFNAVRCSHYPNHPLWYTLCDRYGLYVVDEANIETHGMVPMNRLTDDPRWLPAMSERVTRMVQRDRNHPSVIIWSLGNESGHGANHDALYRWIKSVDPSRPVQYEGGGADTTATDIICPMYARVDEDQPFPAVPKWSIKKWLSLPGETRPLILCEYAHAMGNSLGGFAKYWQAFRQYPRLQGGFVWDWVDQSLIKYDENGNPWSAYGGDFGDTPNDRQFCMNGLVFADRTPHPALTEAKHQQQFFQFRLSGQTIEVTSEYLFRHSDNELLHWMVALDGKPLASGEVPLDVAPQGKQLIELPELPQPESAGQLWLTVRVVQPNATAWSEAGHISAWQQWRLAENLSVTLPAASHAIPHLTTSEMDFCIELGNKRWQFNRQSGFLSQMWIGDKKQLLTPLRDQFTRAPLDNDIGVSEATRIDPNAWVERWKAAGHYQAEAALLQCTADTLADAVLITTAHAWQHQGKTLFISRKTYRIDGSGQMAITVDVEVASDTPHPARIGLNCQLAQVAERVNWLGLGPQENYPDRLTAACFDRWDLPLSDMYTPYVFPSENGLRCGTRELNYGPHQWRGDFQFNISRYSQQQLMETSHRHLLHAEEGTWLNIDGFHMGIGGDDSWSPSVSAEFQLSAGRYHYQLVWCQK
Glucose-6-phosphate 1-dehydrogenase, sequence (P11413 whole entry): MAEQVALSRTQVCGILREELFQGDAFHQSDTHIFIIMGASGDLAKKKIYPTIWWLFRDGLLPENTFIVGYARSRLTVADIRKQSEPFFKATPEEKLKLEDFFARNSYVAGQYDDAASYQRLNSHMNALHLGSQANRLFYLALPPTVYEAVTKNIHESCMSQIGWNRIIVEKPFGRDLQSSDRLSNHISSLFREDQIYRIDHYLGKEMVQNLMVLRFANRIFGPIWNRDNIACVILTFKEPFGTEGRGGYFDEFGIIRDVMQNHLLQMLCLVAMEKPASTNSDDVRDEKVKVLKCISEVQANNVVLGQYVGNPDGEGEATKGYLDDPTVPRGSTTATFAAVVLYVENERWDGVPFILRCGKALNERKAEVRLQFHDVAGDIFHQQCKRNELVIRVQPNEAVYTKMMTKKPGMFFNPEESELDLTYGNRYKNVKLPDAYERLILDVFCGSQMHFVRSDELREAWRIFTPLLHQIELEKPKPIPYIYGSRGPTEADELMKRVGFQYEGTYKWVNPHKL

Consider `O=C1C(=O)N(Cc2cccc(Cl)c2)c2ccccc21`, for which the AC50 – broadly, the concentration at which the activity in the assay is half-maximal – in [1] is 124 µM (active).

On to `CC1=C(O)C(=O)C=C2C1=CC=C1C2(C)CCC2(C)C3CC(C)(C(=O)O)CCC3(C)CCC12C` (stereo not given), for which the IC50 (as a rule, the midpoint of a concentration-inhibition curve) at Beta Lactamase [2] was 21.4 µM (inactive); on Protein Tat it was > 100 µM (active); on Beta Lactamase [3] it was 38.1 µM (inactive); in experiment [5], > 80 µM (inactive); at Genome polyprotein it was 19.7 µM (active); at Beta-galactosidase it was > 66.6 µM (inactive). Further, the 50% inhibitory concentration (IC50) in experiment [7] is 205 nM (active); in the experiment with CHO it was 619 nM (active). Besides, the AC50 in [4] is 1.41 µM (active); in [6], 26.1 µM (active); at Paired box protein Pax-8, 2.41 µM (active). The values for the CC50 (in the experiment with Vero; in experiment [8]) were 1.43 µM (active) and 1.01 µM (active), respectively.

As for `C(=N\NC1=Nc2cccc3cccc1c23)/c1ccccc1`, the IC50 in experiment [9] was > 100 µM (inactive); in experiment [11] it was 5.42 µM (active); in [16] it was > 67.5 µM (inactive); on Caspase-3, 30.1 µM (active); in experiment [17] it was > 100 µM (inactive). Moreover, the EC50 is > 67.5 µM (inactive) in [10]; > 99 µM (inactive) in experiment [12]; > 67.5 µM (inactive) in [13]; > 67.5 µM (inactive) in experiment [14]; > 99 µM (inactive) in experiment [15]; > 67.5 µM (inactive) in the experiment “cells”.

(Values after ChEMBL document CHEMBL1201862, “PubChem BioAssay data set” (2004).)
